Assay results published in patent US20260294949A1, “SUBSTITUTED BICYCLIC HETEROCYCLE COMPOUNDS, COMPOSITIONS, AND USES THEREOF” (Lakewood Amedex, Inc., priority 2023, published 2026).

Columns and labels:
Type in all cases: cell-based
Escherichia coli (25922) = test: MIC, broth microdilution (CLSI), Escherichia coli (25922); details: pH 3, 18 to 24 hours
Description: (§1) MIC testing is conducted using the broth (Mueller Hinton Broth) microdilution procedures relevant to each organism group as established by the Clinical and Laboratory Standards Institute (CLSI; 3-7). MIC plates are prepared in accordance with CLSI (3-7). To prepare the test plates, automated liquid handlers are used to conduct serial dilutions and liquid transfers. Automated liquid handlers utilized in this study include the Multidrop 384 (Labsystems, Helsinki, Finland) and the Biomek 2000 (Beckman Coulter, Fullerton CA). The solution is diluted to desired pH using 1 M Citric Acid or 1 M NaOH buffer. A standardized inoculum of each test organism is prepared per CLSI methods (3, 5-7) to equal a 0.5 McFarland standard in the appropriate media followed by an additional 1:20 dilution (1:10 for anaerobes).
(§2) The plates are then inoculated with 10 μL of the diluted 0.5 McFarland suspension using the Biomek 2000 from low to high drug concentration, resulting in a final concentration of approximately 5×10^5 CFU/mL per well. An un-inoculated plate is incubated for the purpose of assessing solubility of the drug in the test media. The plates are stacked 3 to 4 high, covered with a sterile lid on the top plate, and incubated for 18 to 24 hours according to CLSI. The MIC is recorded as the lowest concentration of respective compound that inhibited visible growth of the organism.

Candida albicans (22972) = test: MIC, broth microdilution (CLSI), Candida albicans (22972); details: pH 3, 18 to 24 hours
Description: as §1, §2

[1] = tested on: Staphylococcus aureus (43330); test: MIC, broth microdilution (CLSI), Staphylococcus aureus (43330); details: pH 3, 18 to 24 hours
Description: as §1, §2

[2] = tested on: Pseudomonas aeruginosa (27853); test: MIC, broth microdilution (CLSI), Pseudomonas aeruginosa (27853); details: pH 3, 18 to 24 hours
Description: as §1, §2

Escherichia coli (6260) = test: MIC, broth microdilution (CLSI), Escherichia coli (6260); details: pH 4-5, 18 to 24 hours
Description: as §1, §2

[3] = tested on: Pseudomonas aeruginosa (6160); test: MIC, broth microdilution (CLSI), Pseudomonas aeruginosa (6160); details: pH 4-5, 18 to 24 hours
Description: as §1, §2

Escherichia coli (0102) = test: MIC, broth microdilution (CLSI), Escherichia coli (0102); details: pH 4-5, 18 to 24 hours
Description: as §1, §2

[4] = tested on: Pseudomonas aeruginosa (6234); test: MIC, broth microdilution (CLSI), Pseudomonas aeruginosa (6234); details: pH 4-5, 18 to 24 hours
Description: as §1, §2

[5] = tested on: Pseudomonas aeruginosa (0103); test: MIC, broth microdilution (CLSI), Pseudomonas aeruginosa (0103); details: pH 4-5, 18 to 24 hours
Description: as §1, §2

Escherichia coli (6258) = test: MIC, broth microdilution (CLSI), Escherichia coli (6258); details: pH 4-5, 18 to 24 hours
Description: as §1, §2

Escherichia coli (6098) = test: MIC, broth microdilution (CLSI), Escherichia coli (6098); details: pH 4-5, 18 to 24 hours
Description: as §1, §2

[6] = tested on: Pseudomonas aeruginosa (6328); test: MIC, broth microdilution (CLSI), Pseudomonas aeruginosa (6328); details: pH 4-5, 18 to 24 hours
Description: as §1, §2

Escherichia coli (6259) = test: MIC, broth microdilution (CLSI), Escherichia coli (6259); details: pH 4-5, 18 to 24 hours
Description: as §1, §2

[7] = tested on: Pseudomonas aeruginosa (6326); test: MIC, broth microdilution (CLSI), Pseudomonas aeruginosa (6326); details: pH 4-5, 18 to 24 hours
Description: as §1, §2

SMILES | MIC (Escherichia coli (25922)) | MIC (Candida albicans (22972)) | MIC [1] | MIC [2] | MIC (Escherichia coli (6260)) | MIC [3] | MIC (Escherichia coli (0102)) | MIC [4] | MIC [5] | MIC (Escherichia coli (6258)) | MIC (Escherichia coli (6098)) | MIC [6] | MIC (Escherichia coli (6259)) | MIC [7]
CCCCOP(=O)(O)OC[C@H]1O[C@@H](n2cnc3c(N)ncnc32)C[C@@H]1O [LAI-017, ((2R,3S,5R)-5-(6-amino-9H-purin-9-yl)-3-hydroxytetrahydrofuran-2-yl)methyl butyl hydrogen phosphate] | 25 mg/mL | 5 mg/mL | 25 mg/mL | 5 mg/mL |  |  |  |  |  |  |  |  |  | 
CCCCOP(=O)(O)OC[C@H]1O[C@@H](n2ncc3c(N)ncnc32)C[C@@H]1O [LAI-018, ((2R, 3S, 5R)-5-(4-amino-1H-pyrazolo [3,4-d]pyrimidine-1-yl)-3-hydroxytetra hydrofuran-2-yl)methyl butyl hydrogen phosphate] | 25 mg/mL | 5 mg/mL | 25 mg/mL | 25 mg/mL |  |  |  |  |  |  |  |  |  | 
CCCCOP(=O)(O)OC[C@H]1O[C@@H](n2cnc3cnc(N)nc32)C[C@@H]1O [LAI-020, ((2R,3S,5R)-5-(2-amino-9H-purin-9-yl)-3-hydroxytetrahydrofuran-2-yl)-methyl butyl hydrogen phosphate] | 25 mg/mL | 25 mg/mL | 25 mg/mL | 5 mg/mL |  |  |  |  |  |  |  |  |  | 
CCCCOP(=O)(O)OC[C@H]1O[C@@H](n2cnc3c(=O)[nH]c(N)nc32)C[C@@H]1O [R-4, ((2R,3S,5R)-5-(2-amino-1,9-dihydro-6H-purin-6-one-9-yl)-3-hydroxytetrahydrofuran-2-yl)-methyl butyl hydrogen phosphate] |  |  |  |  | 100 mg/mL | 50 mg/mL | 50 mg/mL | 25 mg/mL | 25 mg/mL |  |  |  |  | 
CCCCOP(=O)(O)OC[C@H]1O[C@@H](n2cnc3c(=O)[nH]c(N)nc32)[C@H](OC)[C@@H]1O [R-8, ((2R,3R,4R,5R)-5-(2-amino-1,9-dihydro-6H-purin-6-one-9-yl)-4-methoxy-3-hydroxytetrahydrofuran-2-yl)-methyl butyl hydrogen phosphate] |  |  |  |  | 100 mg/mL | 100 mg/mL | 100 mg/mL | 50 mg/mL | 100 mg/mL | 100 mg/mL | 100 mg/mL | 100 mg/mL | 100 mg/mL | 100 mg/mL
